The target in experiment [1] is T1, furin (endogenous protease) in U20S cells (Homo sapiens, UniProt P09958).
T1 construct: the endogenous protease cleaves GFP; endogenous in cells; host or cells: U2OS cells transduced with a BacMam reporter
In words: Furin cell-based assay (image-based, Golgi-targeted GFP with BMP10 furin/PCSK cleavage site).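 Also: Read-out is mean GFP fluorescence of Golgi puncta per cell by high-content imaging, retained when furin inhibited, over an eleven-point 0.00017–10 µM series, four-parameter fit.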 The settings on record: 24-hour incubation, read-out: furin golgi cell pXC50 (converted).

Experiment [2] addresses T2, Furin (108-574-Tev-Flag-His) enzyme (Homo sapiens, UniProt P09958).
T2 construct: Furin (108-574-Tev-Flag-His) enzyme was expressed and purified from CHO cells; TEV cleavage site (C); FLAG (C); His (C); made in house; host or cells: CHO cells
In words: Furin enzyme assay. Type of experiment: biochemical. The settings on record: for IC50: read-out: furin enzyme pIC50 (converted). Here is the method: Reactions were performed in black 384-well polystyrene low volume plates (Greiner). Furin (108-574-Tev-Flag-His) enzyme was expressed and purified from CHO cells. Compounds of the invention were dissolved in DMSO (1.0 mM) and serially diluted 1 to 3 with DMSO through eleven dilutions to provide a final compound concentration range from 0.00017 to 10 μM. 0.05 μL of each concentration was transferred to the corresponding well of an assay plate, and then 5 μL of 40 pM furin enzyme in assay buffer (100 mM HEPES pH7.5, 1 mM CaCl2 and 0.005% Triton X-100) was added using a Multidrop Combi (Thermo) to the compound plates, and mixed by inversion. […] The plates were centrifuged at 500×g for 1 minute and incubated at room temperature for two hours. Enzyme inhibition is then quantified using an Envision instrument (PerkinElmer).
Data were analyzed using AbaseXE 7.3, utilizing a four-parameter curve fit equation. The following values were used to define limits and/or constraints for each of the four parameters: • Minimum—limit −10 to 10 • Maximum—90 to 110 • Slope—limit 0.5 to 2.0 • pXC50 confidence interval—10
Raw counts obtained from the respective plate reader (Perkin Elmer) were captured for data analysis. Curves were generated using the equation: Y=A+[(B−A)/(1+(10^C/x)^D)] • where: A=minimum response • B=maximum response • C=log 10*XC50 • D=slope factor • x=log 10 compound concentration [M]
The results were recorded as pXC50 values (−C in the above equation)

We go through 22 compounds from patent publication US11773078B2, “Furin inhibitors” (Glaxosmithkline Intellectual Property Development Limited, priority 2018, dated 2023).

Counter-ions that a name gives are not always drawn.

T1 sequence (P09958 108-794): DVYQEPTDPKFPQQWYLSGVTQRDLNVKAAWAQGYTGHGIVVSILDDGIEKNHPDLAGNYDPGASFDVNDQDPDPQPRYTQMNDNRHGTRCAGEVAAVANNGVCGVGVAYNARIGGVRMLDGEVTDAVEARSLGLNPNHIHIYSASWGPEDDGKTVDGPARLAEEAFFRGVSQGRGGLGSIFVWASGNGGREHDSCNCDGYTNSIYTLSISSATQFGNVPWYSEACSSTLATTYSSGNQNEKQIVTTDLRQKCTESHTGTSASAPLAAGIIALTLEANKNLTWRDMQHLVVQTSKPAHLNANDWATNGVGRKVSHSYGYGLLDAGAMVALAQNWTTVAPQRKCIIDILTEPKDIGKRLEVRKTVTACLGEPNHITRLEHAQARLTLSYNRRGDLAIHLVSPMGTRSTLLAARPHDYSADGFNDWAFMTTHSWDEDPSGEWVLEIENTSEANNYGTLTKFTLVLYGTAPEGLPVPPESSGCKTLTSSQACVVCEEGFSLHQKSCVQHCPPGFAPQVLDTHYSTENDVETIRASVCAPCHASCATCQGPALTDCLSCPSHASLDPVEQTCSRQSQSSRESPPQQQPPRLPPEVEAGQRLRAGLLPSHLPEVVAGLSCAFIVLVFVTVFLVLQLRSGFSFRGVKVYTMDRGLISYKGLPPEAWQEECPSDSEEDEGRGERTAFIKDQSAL
T2 sequence (P09958 108-574): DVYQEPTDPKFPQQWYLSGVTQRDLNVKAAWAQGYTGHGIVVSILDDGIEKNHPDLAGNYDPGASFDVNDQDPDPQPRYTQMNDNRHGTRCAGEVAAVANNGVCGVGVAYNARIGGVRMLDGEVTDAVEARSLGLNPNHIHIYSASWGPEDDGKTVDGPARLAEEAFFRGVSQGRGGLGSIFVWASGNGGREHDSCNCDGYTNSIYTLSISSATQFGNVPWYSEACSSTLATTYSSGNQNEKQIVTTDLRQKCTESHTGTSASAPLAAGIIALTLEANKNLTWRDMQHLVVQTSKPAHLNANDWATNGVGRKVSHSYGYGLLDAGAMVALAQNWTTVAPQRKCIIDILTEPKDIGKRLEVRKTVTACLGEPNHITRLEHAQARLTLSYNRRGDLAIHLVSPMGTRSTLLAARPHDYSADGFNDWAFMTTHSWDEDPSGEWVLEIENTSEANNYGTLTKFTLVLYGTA

Consider `CC(=O)NCC1CCN(Cc2cc(Oc3ccc(N4CC[C@@H](N)[C@@H](F)C4)nc3)nc(-c3cc(Cl)cc(Cl)c3)c2)CC1` (relative stereo) [Example 182], for which the EC50 in experiment [1] is 1.58 nM. Moreover, the “furin enzyme pIC50” value in experiment [2] came to 9.3.

Turning to `CC(=O)NCC1CCN(Cc2cc(Oc3ccc(N4C[C@H](CN)[C@@H](O)C4)nc3)nc(-c3cc(Cl)cc(Cl)c3)c2)CC1` (relative stereo) [Example 184, N-((1-((2-((6-(trans-3-(Aminomethyl)-4-hydroxypyrrolidin-1-yl)pyridin-3-yl)oxy)-6-(3,5-dichlorophenyl)pyridin-4-yl)methyl)piperidin-4-yl)methyl)acetamide], the EC50 in experiment [1] was 15.8 nM. The IC50 in experiment [2] was 0.251 nM.

As to `CNC(=O)CN1CCN(Cc2cc(Oc3ccc(N4CCNCC4)nc3)nc(-c3cc(Cl)cc(Cl)c3)c2)CC1` [Example 1, 2-(4-((2-(3,5-Dichlorophenyl)-6-((6-(piperazin-1-yl)pyridin-3-yl)oxy)pyridin-4-yl)methyl)piperazin-1-yl)-N-methylacetamide, 5 hydrochloride], the EC50 in experiment [1] was 1.58 nM. Besides, the “furin enzyme pIC50” value in experiment [2] is on record as 8.3.

In the case of `CC(=O)NCC1(O)CCN(Cc2cc(Oc3ccc(N4CCNCC4)nc3)nc(-c3cc(Cl)cc(Cl)c3)c2)CC1` [Example 2, N-((1-((2-(3,5-Dichlorophenyl)-6-((6-(piperazin-1-yl)pyridine-3-yl)oxy)pyridin-4-yl)methyl)-4-hydroxypiperidin-4-yl)methyl)acetamide], the EC50 in experiment [1] is 39.8 nM. Moreover, the “furin enzyme pIC50” value in experiment [2] was found to be 8.8.

As to `O=C(O)CCC1CCN(Cc2cc(Oc3ccc(N4CCNCC4)nc3)nc(-c3cc(Cl)cc(Cl)c3)c2)CC1` [Example 3, 3-(1-((2-(3,5-Dichlorophenyl)-6-((6-(piperazin-1-yl)pyridin-3-yl)oxy)pyridin-4-yl)methyl)piperidin-4-yl)propanoic acid, 4 hydrochloride], in experiment [1], the EC50 is 50.1 nM. Besides, the “furin enzyme pIC50” value in experiment [2] worked out at 8.9.

As to `O=C(O)CC1CCN(Cc2cc(Oc3ccc(N4CCNCC4)nc3)nc(-c3cc(Cl)cc(Cl)c3)c2)CC1` [Example 4, 2-(1-((2-(3,5-Dichlorophenyl)-6-((6-(piperazin-1-yl)pyridin-3-yl)oxy)pyridin-4-yl)methyl)piperidin-4-yl)acetic acid, 4 hydrochloride], the EC50 in experiment [1] was 31.6 nM. The “furin enzyme pIC50” value in experiment [2] is recorded as 8.7.

Regarding `CNC(=O)NCC1(O)CCN(Cc2cc(Oc3ccc(N4CCNCC4)nc3)nc(-c3cc(Cl)cc(Cl)c3)c2)CC1` [Example 5, 1-((1-((2-(3,5-Dichlorophenyl)-6-((6-(piperazin-1-yl)pyridin-3-yl)oxy)pyridin-4-yl)methyl)-4-hydroxypiperidin-4-yl)methyl)-3-methylurea, 4 hydrochloride], in experiment [1], the EC50 was 63.1 nM. In addition, in experiment [2], the “furin enzyme pIC50” value was 9.1.

Turning to `COC(=O)NCC1(O)CCN(Cc2cc(Oc3ccc(N4CCNCC4)nc3)nc(-c3cc(Cl)cc(Cl)c3)c2)CC1` [Example 6, Methyl ((1-((2-(3,5-dichlorophenyl)-6-((6-(piperazin-1-yl)pyridin-3-yl)oxy)pyridin-4-yl)methyl)-4-hydroxypiperidin-4-yl)methyl)carbamate, 4 hydrochloride], the EC50 in experiment [1] is 7.94 nM. Also, the “furin enzyme pIC50” value in experiment [2] was found to be 8.5.

`O=S(=O)(O)CCC1CCN(Cc2cc(Oc3ccc(N4CCNCC4)nc3)nc(-c3cc(Cl)cc(Cl)c3)c2)CC1` [Example 7, 2-(1-((2-(3,5-Dichlorophenyl)-6-((6-(piperazin-1-yl)pyridin-3-yl)oxy)pyridin-4-yl)methyl)piperidin-4-yl)ethanesulfonic acid, 4 hydrochloride]: the EC50 in experiment [1] was 79.4 nM. For the same compound, the “furin enzyme pIC50” value in experiment [2] was determined as 9.2.

Take `O=S(=O)(O)CC1CCN(Cc2cc(Oc3ccc(N4CCNCC4)nc3)nc(-c3cc(Cl)cc(Cl)c3)c2)CC1` [Example 8, (1-((2-(3,5-Dichlorophenyl)-6-((6-(piperazin-1-yl)pyridin-3-yl)oxy)pyridin-4-yl)methyl)piperidin-4-yl)methanesulfonic acid, 4 hydrochloride]: the EC50 in experiment [1] is 200 nM. Besides, the “furin enzyme pIC50” value in experiment [2] was 8.9.

For `CC(=O)NCC1CCN(Cc2cc(Oc3ccc(N4CCNCC4)nc3)nc(-c3cc(Cl)cc(Cl)c3)c2)CC1` [Example 9, N-((1-((2-(3,5-Dichlorophenyl)-6-((6-(piperazin-1-yl)pyridin-3-yl)oxy)pyridin-4-yl)methyl)piperidin-4-yl)methyl)acetamide, 4 hydrochloride], the EC50 in experiment [1] was 7.94 nM. Moreover, the “furin enzyme pIC50” value in experiment [2] was found to be 9.2.

On to `CC(=O)NCC1CCN(Cc2cc(Oc3ccc(N4CCN(CCC(N)=O)CC4)nc3)nc(-c3cc(Cl)cc(Cl)c3)c2)CC1` [Example 13, hydrochloride], for which the EC50 in experiment [1] is 7.94 nM. For the same compound, in experiment [2], the “furin enzyme pIC50” value came out at 9.1.

`CC(=O)NCC1CCN(Cc2cc(Oc3ccc(N4CCN(CCc5nnn[nH]5)CC4)nc3)nc(-c3cc(Cl)cc(Cl)c3)c2)CC1` [Example 14, N-((1-((2-((6-(4-(2-(1H-Tetrazol-5-yl)ethyl)piperazin-1-yl)pyridin-3-yl)oxy)-6-(3,5-dichlorophenyl)pyridin-4-yl)methyl)piperidin-4-yl)methyl)acetamide, 4 hydrochloride]: the EC50 in experiment [1] was 631 nM. Further, the “furin enzyme pIC50” value in experiment [2] is recorded as 9.5.

`CC(=O)NCC1CCN(Cc2cc(Oc3ccc(N4CCN(CC[S+](C)[O-])CC4)nc3)nc(-c3cc(Cl)cc(Cl)c3)c2)CC1` (stereo not shown) [Example 15, N-((1-((2-(3,5-Dichlorophenyl)-6-((6-(4-(2-(methylsulfinyl)ethyl)piperazin-1-yl)pyridin-3-yl)oxy)pyridin-4-yl)methyl)piperidin-4-yl)methyl)acetamide, 4 hydrochloride]: the EC50 in experiment [1] is 25.1 nM. The “furin enzyme pIC50” value in experiment [2] was determined as 8.5.

On to `CC(=O)NCC1CCN(Cc2cc(Oc3ccc(N4CCN(C(C)CCS(C)(=O)=O)CC4)nc3)nc(-c3cc(Cl)cc(Cl)c3)c2)CC1` (stereo not shown) [Example 16], for which, in experiment [1], the EC50 is 1.26 nM. In experiment [2], the “furin enzyme pIC50” value was determined as 9.

Regarding `CC(=O)NCC1CCN(Cc2cc(Oc3ncc(N)cn3)cc(-c3cc(Cl)cc(Cl)c3)c2)CC1` [Example 43, N-((1-((5-((5-aminopyrimidin-2-yl)oxy)-3′,5′-dichloro-[1,1′-biphenyl]-3-yl)methyl)piperidin-4-yl)methyl)acetamide], the “furin enzyme pIC50” value in experiment [2] was found to be 6.

Consider `COC(=O)NC(=O)CCN1CCN(c2ncc(Oc3cc(CN4CCC(CNC(C)=O)CC4)cc(-c4cc(Cl)cc(Cl)c4)n3)cn2)CC1` [Example 172, methyl (3-(4-(5-((4-((4-(acetamidomethyl)piperidin-1-yl)methyl)-6-(3,5-dichlorophenyl)pyridin-2-yl)oxy)pyrimidin-2-yl)piperazin-1-yl)propanoyl)carbamate], for which, in experiment [2], the IC50 is 0.251 nM.

As to `COC(=O)NC(=O)CCN1CCN(c2ncc(Oc3cc(CN4CCC(CNC(C)=O)CC4)cc(-c4cc(Cl)cc(Cl)c4)n3)cn2)CC1` [Example 175, methyl (3-(4-(5-((4-((4-(acetamidomethyl)piperidin-1-yl)methyl)-6-(3,5-dichlorophenyl)pyridin-2-yl)oxy)pyrimidin-2-yl)piperazin-1-yl)propanoyl)carbamate], the “furin enzyme pIC50” value in experiment [2] is reported as 9.2.

For `CNC(=O)NCC1CCN(Cc2cc(Oc3ccc(N4CCN(CCCS(N)(=O)=O)CC4)nc3)nc(-c3cc(Cl)cc(Cl)c3)c2)CC1` [Example 260, 3-(4-(5-((6-(3,5-dichlorophenyl)-4-((4-((3-methylureido)methyl)piperidin-1-yl)methyl)pyridin-2-yl)oxy)pyridin-2-yl)piperazin-1-yl)propane-1-sulfonamide], the EC50 in experiment [1] was 6.31 nM.

Take `CN1CCN(c2ncc(Oc3cc(CN4CC[C@@H]5[C@H](CC4)[C@H]5C(=O)O)cc(-c4cc(Cl)cc(Cl)c4)n3)cn2)CC1` [Example 321, (1R,7S,8r)-4-((2-(3,5-dichlorophenyl)-6-((2-(4-methylpiperazin-1-yl)pyrimidin-5-yl)oxy)pyridin-4-yl)methyl)-4-azabicyclo[5.1.0]octane-8-carboxylic acid]: the EC50 in experiment [1] is 15.8 nM.

Consider `C[C@H](CC1CCN(Cc2cc(Oc3ccc(N4CCN(C)CC4)nn3)nc(-c3cc(Cl)cc(Cl)c3)c2)CC1)C(=O)O` [Example 364, (R)-3-(1-((2-(3,5-dichlorophenyl)-6-((6-(4-methylpiperazin-1-yl)pyridazin-3-yl)oxy)pyridin-4-yl)methyl)piperidin-4-yl)-2-methylpropanoic acid], for which, in experiment [1], the EC50 is 31.6 nM.

In the case of `CN1CCN(c2cnc(Oc3nc(-c4cc(Cl)cc(Cl)c4)cc(CN4CCC(CC(=O)O)CC4)c3F)cn2)CC1` [Example 390, 2-(1-((6-(3,5-Dichlorophenyl)-3-fluoro-2-((5-(4-methylpiperazin-1-yl)pyrazin-2-yl)oxy)pyridin-4-yl)methyl)piperidin-4-yl)acetic acid], the “furin enzyme pIC50” value in experiment [2] came to 8.3.
